Measurements as given in publication PMC10245146, “CNS4 causes subtype‐specific changes in agonist efficacy and reversal potential of permeant cations in NMDA receptors” (Pharmacology Research & Perspectives, 2023).

Assays:
GluN1/2A receptors = target: T1, GluN1/2A receptors (UniProt P35439+Q12879); assay: Whole-cell patch-clamp, HEK293T cells expressing recombinant GluN1/2A; format: cell-based; details: 100 μM CNS4 applied 4 s before and with 100 μM glutamate + 100 μM glycine; agonist alone −323.5 ± 82 pA; n = 4(3), p = .12
T1 construct: expressed in transfected cells; host or cells: HEK-293T
T1 sequence (Q12879 23-1464, other chains not shown): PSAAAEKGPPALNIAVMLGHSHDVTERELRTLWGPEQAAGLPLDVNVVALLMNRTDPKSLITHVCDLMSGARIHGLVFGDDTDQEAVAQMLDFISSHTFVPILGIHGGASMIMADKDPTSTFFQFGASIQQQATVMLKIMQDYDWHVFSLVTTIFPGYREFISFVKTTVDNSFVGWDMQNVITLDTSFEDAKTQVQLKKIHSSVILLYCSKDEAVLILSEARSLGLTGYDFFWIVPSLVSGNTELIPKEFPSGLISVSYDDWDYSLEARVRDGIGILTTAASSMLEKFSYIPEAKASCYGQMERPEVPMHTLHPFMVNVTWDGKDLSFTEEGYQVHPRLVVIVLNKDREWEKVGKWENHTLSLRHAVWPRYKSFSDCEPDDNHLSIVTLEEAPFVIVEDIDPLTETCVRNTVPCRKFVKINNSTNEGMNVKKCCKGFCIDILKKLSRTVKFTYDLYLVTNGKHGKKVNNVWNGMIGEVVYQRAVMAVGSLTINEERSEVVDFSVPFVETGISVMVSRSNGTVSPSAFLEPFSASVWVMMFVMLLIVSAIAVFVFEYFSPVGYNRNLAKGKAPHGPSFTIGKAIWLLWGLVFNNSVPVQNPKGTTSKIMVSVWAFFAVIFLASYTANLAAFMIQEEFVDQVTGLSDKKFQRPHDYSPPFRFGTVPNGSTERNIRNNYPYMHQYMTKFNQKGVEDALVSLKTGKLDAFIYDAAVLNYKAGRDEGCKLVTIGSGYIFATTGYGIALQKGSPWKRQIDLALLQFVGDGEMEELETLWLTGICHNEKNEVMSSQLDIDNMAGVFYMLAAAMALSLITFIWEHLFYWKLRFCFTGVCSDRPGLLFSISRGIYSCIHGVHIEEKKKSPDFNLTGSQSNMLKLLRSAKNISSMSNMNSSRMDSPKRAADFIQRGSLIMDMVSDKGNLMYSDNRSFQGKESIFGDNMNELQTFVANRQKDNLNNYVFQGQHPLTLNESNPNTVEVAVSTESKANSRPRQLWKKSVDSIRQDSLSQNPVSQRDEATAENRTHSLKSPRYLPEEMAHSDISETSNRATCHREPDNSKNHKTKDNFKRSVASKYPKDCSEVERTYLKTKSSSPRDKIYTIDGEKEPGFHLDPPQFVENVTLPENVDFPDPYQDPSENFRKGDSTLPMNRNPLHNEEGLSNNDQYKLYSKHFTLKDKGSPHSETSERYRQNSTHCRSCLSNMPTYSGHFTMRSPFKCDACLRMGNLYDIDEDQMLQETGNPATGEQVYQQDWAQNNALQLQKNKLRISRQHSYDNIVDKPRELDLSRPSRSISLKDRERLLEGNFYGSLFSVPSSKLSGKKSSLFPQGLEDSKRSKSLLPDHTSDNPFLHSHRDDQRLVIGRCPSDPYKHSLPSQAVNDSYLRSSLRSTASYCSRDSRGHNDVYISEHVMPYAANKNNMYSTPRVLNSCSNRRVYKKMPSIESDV
Protocol: (§1) Whole‐cell patch‐clamp electrophysiology studies were carried out in HEK‐293T cells expressing recombinant NMDA receptors that lack native functional NMDA receptors.[29], [30], [31] An equal quantity of (1 μg) cDNA for GluN1a, GluN2 subunits were co‐transfected 24‐48 h before patch‐clamp electrophysiology assay. […] Cells were carefully washed before performing experiments and were used for the electrophysiology experiments after 24 to 48 h incubation at 37°C with 5%CO2. The whole‐cell patch‐clamp electrophysiology assay was performed using semi‐automated patch‐clamp equipment, Port‐a‐Patch (Nanion Technologies GmbH). Following are the constituents of various solutions used for patch‐clamp electrophysiology: internal solution ([mM] NaCl 10, EGTA 20, CsF 110, HEPES 10), Mg‐free external (recording) solution ([mM] NaCl 140, KCl 4, CaCl2 2, HEPES 10, D‐GlucoseMonohydrate 5), and Mg‐free seal enhancer solution ([mM] NaCl 80, KCl 3, CaCl2 35, HEPES 10). Nanion NPC chips with […] resistance were used for the HEK‐293T cell recordings.
(§2) FIGURE 1 CNS4 sensitizes ambient concentration of agonists in GluN2 subunit dependent manner. […] Statistical significance was calculated from the Wilcoxon matched‐pairs signed rank test, except the comparison between 1/2A & 1/2AB CNS4 with no agonist data, which was done by unpaired t‐test. […]

[1] = tested on: GluN1/2A/2B triheteromeric (1/2AB) NMDA receptors; assay: TEVC agonist dose-response, Xenopus oocytes expressing 1/2AB; format: cell-based
Description: NMDA receptor constructs: cDNA encoding the NMDA receptor1a subunit (GluN1a) was obtained from Dr. Nakanishi (Kyoto, Japan). cDNA encoding the GluN2B (pci_sepGluN2B), originally developed in the Malinow lab,[33] was purchased from Addgene (cat# 23998), Cambridge, MA. cDNA encoding the GluN2C and GluN2D were purchased from GenScript, New Jersey, USA. Mutated GluN1, 2A and 2B cDNA constructs capable of assembling as GluN1/2A/2B triheteromeric (1/2AB) receptors[34] were obtained from Dr. Paoletti (Laboratoire de Neurobiologie, CNRS). These constructs have been previously tested for 1/2AB receptor activity of GluN1/2A receptor‐selective potentiators.[35] […] Plasmids were linearized with NotI (GluN1a and all five GluN1 mutants) or Avrll (GluN2B), or BstB1 (GluN2C and GluN2D) and transcribed in vitro with T7 (GluN1a, GluN1/2A, GluN2B, GluN2C & GluN2D), and SP6 (GluN1 mutants) RNA polymerase using the mMessage mMachine transcription kits (Invitrogen by Thermo Fisher Scientific).
Stage IV frog oocytes were obtained from Xenopus‐I, (Ann Arbor, MI, USA). NMDA receptor subunit cRNAs were suspended in nuclease free sterile water. GluN1A, GluN2B, GluN2C, GluN2D and GluN1/2A/2B cRNAs were mixed in a ratio of 1:1–3. 50 nL of the final cRNA mixture was microinjected (40–70 ng total) into the oocyte cytoplasm. Oocytes were incubated in ND‐96 solution at 18°C prior to electrophysiological recordings (2–5 days).
Electrophysiological responses were measured using a standard two‐microelectrode voltage‐clamp workstation (Warner Instruments model OC‐725C) designed to provide a fast clamp of large cells. The recording buffer contained 116 mM NaCl, 2 mM KCl, 0.3 mM BaCl2, and 5 mM HEPES, pH 7.4. Response magnitude was determined in Xenopus oocytes expressing different NMDA receptor subunits (GluN1/2A, 1/2B, 1/2C, 1/2D, and 1/2A/2B) by the steady plateau response elicited by bath application of different agonist concentrations. […] All data points were obtained from the steady state currents unless stated otherwise. Dose–response relationships were fit to an appropriate curve‐fitting equation using GraphPad Prism‐7. Non‐linear regression was used to calculate EC50, IC50, and fold change or percentage maximal response. Curves were fit using the following equations as performed in the previous studies, [37]: Y=100/1+10^LogEC50−XorY=Bottom+Top−Bottom/1+10^LogEC50−X . Statistical significance was determined at the overall alpha level 0.05, using appropriate statistical methods as described in all figure captions. Technical and biological replicates are explicitly mentioned in each figure legend, as n = X (Y). X represents technical repeats (number of traces) and Y represents biological repeats (number of oocytes or HEK293T cells studied). […]

GluN1/2AB receptors = assay: Whole-cell patch-clamp, HEK293T cells expressing recombinant GluN1/2AB; format: cell-based; details: 100 μM CNS4 applied 4 s before and with 100 μM glutamate + 100 μM glycine; agonist alone −546 ± 32.34 pA; n = 8(4), p = .023
Protocol: as §1, §2

[2] = tested on: untransfected HEK293T cells; assay: Whole-cell patch-clamp on untransfected HEK293T cell; format: cell-based, human; details: 100 μM CNS4
Protocol: as §1, §2

O=C(NC(=S)N1CCCCC1c1cccnc1)c1ccc(F)cc1 (stereo not drawn) [CNS4]
Peak current amplitude (GluN1/2A receptors): −469.3 ± 152 pA | Reduction in glutamate efficacy with vs without CNS4 ([1]; 30 μM CNS4): 5.3 fold | Glycine efficacy: relative fold change in current at highest glycine concentration ([1]; with 30 μM CNS4, 100 μM glutamate constant, relative to 1 μM glycine, p = .0019): 1.37 ± 0.08 fold | Glutamate efficacy: relative fold change in current at highest glutamate concentration ([1]; with 30 μM CNS4, 100 μM glycine constant, relative to 1 μM glutamate, p = .0001): 2.79 ± 0.43 fold | Peak current amplitude (GluN1/2AB receptors): –380.7 ± 36.61 pA | Current response [2]: did not produce any measurable current response
